From US20220169598A1, “HALOGENATED PHENYLSULFONAMIDE HYDROXAMIC ACID COMPOUNDS, COMPOSITIONS AND USES THEREOF AS SELECTIVE HDAC6 INHIBITORS” (2681603 ONTARIO INC., priority 2019, published 2022)
pIC50: −log10 of the molar value.

Columns and labels:
[1] = system: MV-4-11; assay: Cytotoxicity in cell lines; format: cell-based; details: Homo sapiens, MV4-11, Table 4; read-out: IC50 MV-411
Description: (§1) The cytotoxicity of exemplary compounds of the application was tested in multiple cell lines including MV-4-11, MOLM-13, MCF-7, MRC9, K562 and MM.1S. The therapeutic index was evaluated by determining the toxicity of the exemplary compounds in healthy cell lines including fibroblasts and HUVEC.

[2] = system: MOLM-13; assay: Cytotoxicity in cell lines; format: cell-based; details: Homo sapiens, MOLM-13; Table 4; read-out: IC50 MOLM-13
Description: as §1

[3] = system: MCF-7; assay: Cytotoxicity in cell lines; format: cell-based; details: Homo sapiens, MCF7; Table 4
Description: as §1

[4] = system: MRC9; assay: Cytotoxicity in cell lines; format: cell-based; details: Table 4
Description: as §1

[5] = system: MM.1S; assay: Cytotoxicity in cell lines; format: cell-based; details: Homo sapiens, MM1.S; Table 4
Description: as §1

[6] = molecular target: HDAC4 (Homo sapiens, UniProt P56524); assay: in vitro activity-based HDAC assay; format: biochemical; details: human HDAC isoform panel, Table 1
Sequence of HDAC4 (P56524 whole entry, canonical isoform): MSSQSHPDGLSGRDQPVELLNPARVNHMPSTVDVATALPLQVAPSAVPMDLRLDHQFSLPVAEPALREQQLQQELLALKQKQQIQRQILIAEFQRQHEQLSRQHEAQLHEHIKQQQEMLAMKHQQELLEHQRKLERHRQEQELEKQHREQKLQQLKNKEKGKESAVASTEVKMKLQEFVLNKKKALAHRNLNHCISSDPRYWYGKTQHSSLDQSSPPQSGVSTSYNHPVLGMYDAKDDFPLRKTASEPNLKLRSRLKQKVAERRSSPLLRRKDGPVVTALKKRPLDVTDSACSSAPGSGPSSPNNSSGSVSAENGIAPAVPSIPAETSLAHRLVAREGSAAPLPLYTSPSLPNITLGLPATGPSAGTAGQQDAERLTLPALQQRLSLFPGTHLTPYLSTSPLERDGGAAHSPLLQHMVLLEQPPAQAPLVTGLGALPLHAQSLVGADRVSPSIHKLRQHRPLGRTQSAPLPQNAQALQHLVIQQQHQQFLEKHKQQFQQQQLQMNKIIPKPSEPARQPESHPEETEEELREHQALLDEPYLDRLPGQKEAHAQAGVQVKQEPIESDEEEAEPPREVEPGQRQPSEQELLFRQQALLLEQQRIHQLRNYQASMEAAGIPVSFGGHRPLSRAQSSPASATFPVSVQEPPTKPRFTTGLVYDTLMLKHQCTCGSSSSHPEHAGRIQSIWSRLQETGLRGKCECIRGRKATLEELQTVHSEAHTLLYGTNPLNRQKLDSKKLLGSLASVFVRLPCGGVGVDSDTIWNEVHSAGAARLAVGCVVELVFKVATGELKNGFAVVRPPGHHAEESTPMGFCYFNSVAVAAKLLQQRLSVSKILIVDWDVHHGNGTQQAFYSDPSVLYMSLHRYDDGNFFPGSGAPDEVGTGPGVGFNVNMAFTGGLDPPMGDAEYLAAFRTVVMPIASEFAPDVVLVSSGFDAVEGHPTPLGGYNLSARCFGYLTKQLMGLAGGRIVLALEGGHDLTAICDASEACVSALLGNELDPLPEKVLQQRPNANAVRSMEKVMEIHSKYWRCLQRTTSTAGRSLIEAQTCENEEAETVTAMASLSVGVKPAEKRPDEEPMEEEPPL
Description: (§2) The exemplary compounds of Formula I and structurally related compounds were synthesized to assess their structure-activity relationship. […] The IC50 values for each exemplary compound were used to calculate the selectivity of the exemplary compounds for Formula I to HDAC6. The selectivity of each exemplary compound for HDAC6 was determined from examining the potency of HDAC6 in relation to the highest binding affinity of the other HDAC isoforms tested.

[7] = molecular target: HDAC5 (Homo sapiens, UniProt Q9UQL6); assay: in vitro activity-based HDAC assay; format: biochemical; details: human HDAC isoform panel, Table 1
Sequence of HDAC5 (Q9UQL6 whole entry, canonical isoform): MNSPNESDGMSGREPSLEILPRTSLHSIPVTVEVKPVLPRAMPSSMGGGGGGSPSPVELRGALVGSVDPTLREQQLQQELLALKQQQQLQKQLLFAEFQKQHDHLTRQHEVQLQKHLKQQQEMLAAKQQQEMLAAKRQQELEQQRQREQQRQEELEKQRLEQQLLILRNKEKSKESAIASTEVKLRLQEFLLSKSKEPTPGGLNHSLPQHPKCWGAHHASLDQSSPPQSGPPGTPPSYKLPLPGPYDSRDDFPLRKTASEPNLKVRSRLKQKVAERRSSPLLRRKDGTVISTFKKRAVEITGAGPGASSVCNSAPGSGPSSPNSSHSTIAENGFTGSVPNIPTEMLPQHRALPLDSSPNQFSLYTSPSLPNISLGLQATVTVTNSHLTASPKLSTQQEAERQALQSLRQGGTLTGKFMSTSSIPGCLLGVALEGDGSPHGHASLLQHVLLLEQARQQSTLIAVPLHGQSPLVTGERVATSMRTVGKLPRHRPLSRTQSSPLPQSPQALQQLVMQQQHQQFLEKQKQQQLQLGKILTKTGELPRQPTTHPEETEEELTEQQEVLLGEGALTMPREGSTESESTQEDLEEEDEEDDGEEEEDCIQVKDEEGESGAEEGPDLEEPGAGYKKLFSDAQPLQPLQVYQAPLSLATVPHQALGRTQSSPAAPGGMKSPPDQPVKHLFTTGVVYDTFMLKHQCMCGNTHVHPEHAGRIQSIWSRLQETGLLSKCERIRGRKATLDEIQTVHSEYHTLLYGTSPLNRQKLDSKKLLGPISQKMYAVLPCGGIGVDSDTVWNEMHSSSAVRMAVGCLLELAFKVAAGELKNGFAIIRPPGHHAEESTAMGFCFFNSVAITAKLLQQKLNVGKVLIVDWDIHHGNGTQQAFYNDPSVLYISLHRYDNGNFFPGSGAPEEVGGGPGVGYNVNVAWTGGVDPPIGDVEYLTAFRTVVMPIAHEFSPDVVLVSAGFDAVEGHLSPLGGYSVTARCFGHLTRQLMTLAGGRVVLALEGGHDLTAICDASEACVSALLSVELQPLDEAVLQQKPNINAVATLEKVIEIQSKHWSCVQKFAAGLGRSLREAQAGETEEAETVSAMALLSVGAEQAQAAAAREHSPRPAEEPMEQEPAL
Description: as §2

[8] = molecular target: T1, HDAC7 (Homo sapiens, UniProt Q8WUI4); assay: in vitro activity-based HDAC assay; format: biochemical; details: human HDAC isoform panel, Table 1
T1 sequence (Q8WUI4 1-952): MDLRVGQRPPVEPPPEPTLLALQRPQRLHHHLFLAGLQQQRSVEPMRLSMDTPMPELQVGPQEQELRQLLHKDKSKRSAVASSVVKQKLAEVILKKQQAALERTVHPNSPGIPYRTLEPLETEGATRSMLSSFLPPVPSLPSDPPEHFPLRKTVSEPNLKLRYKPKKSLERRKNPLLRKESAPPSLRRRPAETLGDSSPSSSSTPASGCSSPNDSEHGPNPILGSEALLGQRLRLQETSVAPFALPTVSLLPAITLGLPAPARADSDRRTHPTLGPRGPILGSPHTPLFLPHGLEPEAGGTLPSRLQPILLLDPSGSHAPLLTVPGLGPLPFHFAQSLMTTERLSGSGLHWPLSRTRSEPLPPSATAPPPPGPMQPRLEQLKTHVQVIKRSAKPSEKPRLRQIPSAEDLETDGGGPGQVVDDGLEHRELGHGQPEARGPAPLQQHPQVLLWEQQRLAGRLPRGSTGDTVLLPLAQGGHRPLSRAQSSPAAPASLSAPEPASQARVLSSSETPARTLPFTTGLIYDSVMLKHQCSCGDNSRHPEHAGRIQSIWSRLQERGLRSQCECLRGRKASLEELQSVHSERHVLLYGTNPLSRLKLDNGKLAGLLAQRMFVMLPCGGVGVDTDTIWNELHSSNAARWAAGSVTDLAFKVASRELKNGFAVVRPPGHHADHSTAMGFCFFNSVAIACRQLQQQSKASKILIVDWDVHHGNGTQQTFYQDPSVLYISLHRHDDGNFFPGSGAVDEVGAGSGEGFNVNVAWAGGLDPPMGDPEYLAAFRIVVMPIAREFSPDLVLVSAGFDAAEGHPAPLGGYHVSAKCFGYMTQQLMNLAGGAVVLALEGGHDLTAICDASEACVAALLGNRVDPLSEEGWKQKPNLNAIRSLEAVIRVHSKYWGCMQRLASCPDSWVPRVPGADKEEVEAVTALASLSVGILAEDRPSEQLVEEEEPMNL
Description: as §2

[9] = molecular target: HDAC9 (Homo sapiens, UniProt Q9UKV0); assay: in vitro activity-based HDAC assay; format: biochemical; details: human HDAC isoform panel, Table 1
Sequence of HDAC9 (Q9UKV0 whole entry, canonical isoform): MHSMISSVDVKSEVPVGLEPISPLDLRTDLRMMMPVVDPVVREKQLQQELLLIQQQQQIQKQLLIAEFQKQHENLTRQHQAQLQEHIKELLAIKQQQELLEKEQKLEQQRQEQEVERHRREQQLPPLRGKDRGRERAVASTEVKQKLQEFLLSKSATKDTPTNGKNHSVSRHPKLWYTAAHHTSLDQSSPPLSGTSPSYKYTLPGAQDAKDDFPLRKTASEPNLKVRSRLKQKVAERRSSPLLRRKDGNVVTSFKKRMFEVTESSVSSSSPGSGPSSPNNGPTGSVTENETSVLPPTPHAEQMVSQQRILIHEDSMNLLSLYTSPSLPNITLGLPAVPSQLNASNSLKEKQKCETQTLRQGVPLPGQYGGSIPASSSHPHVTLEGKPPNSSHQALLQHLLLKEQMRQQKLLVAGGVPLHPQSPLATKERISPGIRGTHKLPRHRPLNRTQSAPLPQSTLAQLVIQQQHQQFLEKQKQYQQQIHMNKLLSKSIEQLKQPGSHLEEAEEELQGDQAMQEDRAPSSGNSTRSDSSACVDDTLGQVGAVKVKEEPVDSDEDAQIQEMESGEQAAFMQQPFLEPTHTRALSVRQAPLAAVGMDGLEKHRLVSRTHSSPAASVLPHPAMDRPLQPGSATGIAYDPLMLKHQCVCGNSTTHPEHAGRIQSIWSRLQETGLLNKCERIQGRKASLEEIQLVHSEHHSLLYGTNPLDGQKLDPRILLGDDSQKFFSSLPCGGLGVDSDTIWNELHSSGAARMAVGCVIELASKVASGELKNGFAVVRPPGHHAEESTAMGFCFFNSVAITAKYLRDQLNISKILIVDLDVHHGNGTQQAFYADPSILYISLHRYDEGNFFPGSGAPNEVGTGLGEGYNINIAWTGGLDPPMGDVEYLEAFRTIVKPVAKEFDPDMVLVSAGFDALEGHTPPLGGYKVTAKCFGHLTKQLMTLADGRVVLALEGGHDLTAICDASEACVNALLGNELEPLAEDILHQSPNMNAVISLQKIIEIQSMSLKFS
Description: as §2

[10] = molecular target: T2, HDAC10 (Homo sapiens, UniProt Q969S8); assay: in vitro activity-based HDAC assay; format: biochemical; details: human HDAC isoform panel, Table 1
T2 sequence (Q969S8 1-669): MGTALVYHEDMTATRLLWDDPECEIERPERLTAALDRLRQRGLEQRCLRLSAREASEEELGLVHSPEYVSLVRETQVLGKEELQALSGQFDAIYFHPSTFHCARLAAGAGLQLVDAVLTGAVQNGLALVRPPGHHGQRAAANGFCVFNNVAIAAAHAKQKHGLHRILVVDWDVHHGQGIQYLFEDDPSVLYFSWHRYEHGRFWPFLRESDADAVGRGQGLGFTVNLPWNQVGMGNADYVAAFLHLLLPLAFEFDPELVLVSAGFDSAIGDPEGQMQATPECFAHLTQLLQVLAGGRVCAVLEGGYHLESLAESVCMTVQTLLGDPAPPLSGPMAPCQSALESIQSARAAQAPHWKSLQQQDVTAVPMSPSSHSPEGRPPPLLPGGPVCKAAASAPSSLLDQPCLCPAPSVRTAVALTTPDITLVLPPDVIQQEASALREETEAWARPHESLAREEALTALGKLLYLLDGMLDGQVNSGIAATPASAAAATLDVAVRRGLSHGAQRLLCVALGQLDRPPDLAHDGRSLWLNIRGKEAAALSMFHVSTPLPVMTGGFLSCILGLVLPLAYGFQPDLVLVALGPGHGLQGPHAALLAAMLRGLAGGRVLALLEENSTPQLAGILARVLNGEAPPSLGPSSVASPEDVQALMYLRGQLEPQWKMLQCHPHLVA
Description: as §2

[11] = molecular target: HDAC1 (Homo sapiens, UniProt Q13547); assay: in vitro activity-based HDAC assay; format: biochemical; details: human HDAC isoform panel, Table 1
Sequence of HDAC1 (Q13547 whole entry, canonical isoform): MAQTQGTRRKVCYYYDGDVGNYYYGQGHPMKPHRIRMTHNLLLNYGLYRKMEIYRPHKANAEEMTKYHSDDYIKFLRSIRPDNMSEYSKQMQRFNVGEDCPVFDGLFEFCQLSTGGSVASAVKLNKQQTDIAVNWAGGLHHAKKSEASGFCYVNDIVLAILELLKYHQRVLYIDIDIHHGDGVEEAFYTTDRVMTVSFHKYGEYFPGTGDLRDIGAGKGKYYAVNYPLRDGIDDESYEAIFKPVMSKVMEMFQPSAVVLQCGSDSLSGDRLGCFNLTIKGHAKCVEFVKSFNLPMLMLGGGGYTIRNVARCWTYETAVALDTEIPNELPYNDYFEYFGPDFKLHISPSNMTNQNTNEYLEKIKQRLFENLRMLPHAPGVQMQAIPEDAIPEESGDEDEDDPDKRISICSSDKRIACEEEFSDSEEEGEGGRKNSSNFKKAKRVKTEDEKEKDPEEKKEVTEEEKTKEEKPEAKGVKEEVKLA
Description: as §2

[12] = molecular target: HDAC2 (Homo sapiens, UniProt Q92769); assay: in vitro activity-based HDAC assay; format: biochemical; details: human HDAC isoform panel, Table 1
Sequence of HDAC2 (Q92769 whole entry, canonical isoform): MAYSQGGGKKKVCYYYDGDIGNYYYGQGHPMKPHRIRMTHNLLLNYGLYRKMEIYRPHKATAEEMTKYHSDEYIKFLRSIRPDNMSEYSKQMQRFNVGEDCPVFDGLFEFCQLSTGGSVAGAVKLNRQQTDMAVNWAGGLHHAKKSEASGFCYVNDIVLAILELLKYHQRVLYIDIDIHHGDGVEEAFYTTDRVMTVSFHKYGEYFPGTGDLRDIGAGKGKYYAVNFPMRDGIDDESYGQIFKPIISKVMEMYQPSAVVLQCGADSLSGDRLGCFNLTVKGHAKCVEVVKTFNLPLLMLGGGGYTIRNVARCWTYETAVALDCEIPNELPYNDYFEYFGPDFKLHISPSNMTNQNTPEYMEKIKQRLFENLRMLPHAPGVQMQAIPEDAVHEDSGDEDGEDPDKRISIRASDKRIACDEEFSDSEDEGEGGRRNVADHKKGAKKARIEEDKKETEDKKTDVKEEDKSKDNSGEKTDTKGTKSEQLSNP
Description: as §2

SMILES | pIC50 [1] | pIC50 [2] | pIC50 [3] | pIC50 [4] | pIC50 [5] | pIC50 [6] | pIC50 [7] | pIC50 [8] | pIC50 [9] | pIC50 [10] | pIC50 [11] | pIC50 [12]
O=C(NO)c1ccc(CN(Cc2cccnc2)S(=O)(=O)c2cc(F)c(F)c(F)c2F)c(C(F)(F)F)c1 [Compound I-31, N-hydroxy-4-((2,3,4,5-tetrafluoro-N-(pyridin-3-ylmethyl)phenylsulfonamido)methyl)-3-(trifluoromethyl)benzamide] | 5.47 | 5.80 | 5.30 |  |  |  |  |  |  |  |  | 
CC(C)N(Cc1ccc(C(=O)NO)cc1F)S(=O)(=O)c1cc(F)c(F)c(F)c1F [Compound I-50, 3-fluoro-N-hydroxy-4-(((2,3,4,5-tetrafluoro-N-isopropylphenyl)sulfonamido)methyl)benzamide] | 5.80 |  |  | < 4.30 | 5.92 | < 6.00 | < 6.00 | < 6.00 | < 6.00 | < 6.00 | < 6.00 | < 6.00
